Source: publication PMC5847048 (Psychopharmacology, 2017)

How the values were obtained:
[1] = test system: middle-aged mice (14–15 months old); experiment: Contextual serial discrimination (CSD) task; type: in vivo, mouse; conditions: for Post hoc analysis of donepezil effect on SCM score for all S 47445 levels (Dunnett, versus vehicle group): all levels of S 47445 pooled
Protocol: (§1) Treatments were administered per os daily for nine consecutive days for studies involving the CSD and SA tasks. The 8th and the 9th oral administrations were given 60 min before acquisition and test phases in the CSD task, or before the training and the test sessions in the SA task.
The studies were carried out on mice according to the procedure described in full by Celerier et al. ([2004]) and Tronche et al. ([2010]) (Fig.1). Briefly, the mouse learns two consecutive spatial discriminations (D1 and D2) in a four hole-board apparatus (45 × 45 × 30 cm) enclosed with gray Plexiglas walls. The floor of the hole-board was interchangeable (white and rough versus black and smooth). On the floor, four holes opening on a food cup (3-cm diameter × 2.5-cm depth) were located 6 cm away from the sidewalls. Photocells located into the holes allowed an automatic recording of the number of head-dips in each hole.
Fig. 1 a Contextual serial discrimination: at the acquisition phase, mice performed two consecutive spatial discrimination sessions varying by the color and texture of the floor, i.e., D1, discrimination 1, and D2, discrimination 2. For each discrimination session, only one out of the four holes of the apparatus was baited (hashed circles). […] One hour prior to acquisition and test phases, mice received a per os administration of the compounds or vehicle solution in a chamber placed in a room (room C) different from the one in which the behavioral experiments were conducted (room A). Subsequently, mice were submitted to the test phase in which they were repositioned on the floor of the first discrimination without any food pellet in the apparatus. b Two types of responses were calculated: (i) correct responses corresponding to head-dips into the hole baited at the acquisition of the first discrimination (D1), on the same floor context; (ii) interference responses corresponding to head-dips into the hole baited at the other (second) discrimination (D2). Both parameters allow calculation of the SCM score
Mice were partially food-deprived for 1 week prior to experimentation and were maintained on a 12 ± 2% loss of their body weight throughout behavioral testing to increase motivation for food reward. During the food deprivation phase, mice were handled daily to familiarize them with the experimenter.
During the acquisition session, mice were first placed at the center of the board in a plastic tube for 15 s and then learned two successive spatial discriminations (D1 and D2) for 6 min each and were each separated by a 2-min interval. Between two sessions, each mouse was placed in its home cage in an animal housing room. For D1, ten 20-mg pellets were available only in one of the four holes in the board. For D2, ten 20-mg pellets were located in the opposite symmetrical hole. The environmental spatial cues remained at the same place for D1 and D2. Within each group, the floors used for the first and second discrimination (D1 and D2) were counterbalanced at the acquisition phase from one mouse to the other. A minimal amount of eight pellets should be eaten per mouse at either D1 or D2 during the acquisition phase.
During memory testing, D1 and D2 discriminations were performed in independent groups of mice, being replaced either on the floor of D1 or of D2. The food-deprived mice were replaced either on the floor of D1 or on the floor of D2. In each case, mice were allowed to explore the apparatus freely and performance was assessed by measuring the exploration for each hole for 6 min without any pellets in the apparatus. During the procedure, photocells allowed measurement of the number of head dips in each hole. Different parameters were further calculated: % of correct responses (head-dips into the hole previously baited on the same floor context), % of interfering responses (head-dips into the hole previously baited on the other floor context), and % of errors (head-dips into the two holes never previously baited).

[2] = test system: mice; experiment: Primary observation (Irwin) test; conditions: donepezil alone
Excerpt: Male Rj: C57BL/6J mice (Elevage Janvier, 53940 Le Genest-Saint-Isle, France), 23–27 g body weight range, were stabilized for at least 5 days after delivery in macrolon cages in groups of 10 (housing period) (25 × 19 × 13 cm) and then of 4 (starting the day before the test and during the test) in macrolon cages (25 × 19 × 13 or 32 × 13 × 14 cm) on wood litter with free access to food and water.
Between one and three treated groups were compared with the same control at any one time. […] In order to keep the same conditions, all the mice receiving a single treatment also received another administration with vehicle.
Behavioral modifications, physiological and neurotoxicity symptoms, and rectal temperature were recorded according to a standardized observation grid derived from that of Irwin. The grid contains the following items: death*, convulsions*, tremor*, Straub tail*, altered activity, excitation, jumping*, abnormal gait* (rolling, tip-toe), motor incoordination*, altered muscle tone, loss of grasping, akinesia, catalepsy, loss of traction, writhing*, piloerection*, stereotypies* (sniffing, chewing, head movements), head-twitches*, scratching*, altered respiration*, aggression*, altered fear, altered reactivity to touch, ptosis, exophthalmia, loss of righting reflex, loss of corneal reflex, analgesia, defecation/diarrhea, salivation, lacrimation, and rectal temperature (hypothermia/hyperthermia).

[3] = test system: aged mice (22–24 months old); experiment: Radial maze working memory task; type: in vivo, mouse; conditions: donepezil 0.3 mg/kg s.c.; aged mice
Protocol: In the radial arm maze task, treatments were administered subcutaneously (s.c.) once a day 60 min prior to testing from the 2 days of habituation to the 12 days of memory testing.
The radial maze (Imetronic system, Pessac, France) was fully automated and enabled by video-tracking automatic testing and recording. Briefly, each mouse was separately assigned to six adjacent arms which were grouped into three pairs (A, B, C). These three pairs were presented repeatedly among the successive trials of each testing session. The location of the food reward varied in each pair according to an alternation rule among successive trials. Namely, among the two arms opened in a specific trial, the food was inserted in the arm which was not visited in the previous trial within the same pair. The mouse must therefore remember which of the two arms was visited in a specific trial until next presentation of the same pair, and so on in order to alternate its choice among successive presentations of any pair. At the beginning of each daily session, the mouse was placed in the central platform of the radial maze with all arms closed. One pair of arms only was opened at the beginning of each trial, and the mouse was required to visit one arm. The door of the non-chosen arm was closed as soon as the mouse reached the end of the chosen arm. The mouse was allowed to run back to the central platform of his own accord, and then, the door of the chosen arm was closed. The mouse remained in the central platform until the following trial (intertrial interval 10 s). Since three pairs were concurrently used, three specific arm visits must be kept in memory by the mouse until their utilization by using short-term working memory. After 2 days of free exploration in the maze (habituation), mice were submitted to 12 consecutive testing sessions: one session of 23 trials (3 “acquisition-only trials,” one by pair, and 20 “acquisition and test trials”) per day, i.e., a total of 276 trials (240 test trials).
Each session consisted of alternate presentations of pairs A, B, and C. The first three trials with each pair were acquisition trials (both arms rewarded). Each of the following trials was at the same time an acquisition trial (for the following trial with the same pair) and a test trial (for the arm visit made during the preceding trial with the same pair); the rewarded arm was the one that has not been visited on the preceding trial with the same pair. Memory demand varied across successive trials according to the retention interval RI (i.e., the number of intervening trials with other pairs between two successive presentations of the same pair). The retention interval for one specific arm visit (e.g., within pair A) depends on the number of concurring trials (i.e., with pairs B and C) occurring till next trial with the same pair (A). Indeed, such a variable amount of interposed trials proportionally increases the delay between acquisition and test and may also generate retroactive interference. There are five levels of retention interval: from 0, corresponding to “no interposed pair,” to 4, corresponding to a sequence of four interposed trials between n-1 and n trials.
During habituation, the time needed for visiting all six arms per session day was measured. During memory testing, memory performance was evaluated according to the percentage of correct alternation responses between successive trials with the same pair in three different manners.

[4] = test system: aged mice (22–24 months old); parameters: method as in Marighetto et al., [2008b]; conditions: ref Marighetto et al., [2008b], cited from earlier work
[5] = test system: aged mice (18–19 months old); experiment: Sequential/spontaneous alternation (SA) working memory task in T-maze; type: in vivo, mouse; conditions: donepezil 0.1 mg/kg p.o. alone, ITI 90 s, n = 12
Protocol: as §1
The spontaneous alternation (SA) task was performed in independent groups of mice as regards to the CSD and radial maze tasks. The SA task allows investigation of aged-induced working memory impairments (Vandesquille et al. [2011]). In this task, mice are submitted to a series of successive choices in a T-maze. To alternate from trial to trial, animals have to remember at each choice (except the first one) only the previous trial and to reset the interfering information from trial to trial over a series. This resetting mechanism is a main aspect of working memory (Aggleton et al. [1986]; Béracochéa and Jaffard, [1987]; Kesner [2005]).
Behavioral tests were conducted in a gray Plexiglas T-maze. Stem and arms are 35 cm long, 15 cm wide, and 10 cm high. The starting box (10 cm × 12 cm) and each goal arm are separated from the central alley by a vertical sliding door, with opening and closing monitored by a computer. Photoelectric cells allow recording of both the choice of the goal arm (left or right) and the latency (in seconds) that elapsed between the opening of the starting box and the closing of the goal box. The T-maze is located at the center of a room with various allocentric cues (white or black or striped card boards) located on the wall 1 m above the apparatus.
Animals were not food deprived, and no food reinforcement was used. Animals were first submitted to a habituation phase consisting of two free exploration sessions of 10 min each, over two consecutive days (one session per day) in the apparatus with all doors opened. At the end of the habituation phase, all animals were submitted to a training phase, involving a series of seven successive trials separated by a 30-s intertrial interval (ITI). The training phase was aimed at familiarizing the animals with the opening and closing of the doors.
For the training session, animals were submitted to a sequence of seven successive identical trials. At the beginning of a trial, mice were placed in the starting box and after a confinement period (30 s, predefined ITI), the door to the stem was opened. When the mouse entered one of the goal arms, the door was closed and the chosen arm was recorded. After a 30-s confinement period in the chosen arm, the mouse was gently returned to the starting box for a second trial, identical to the first one. To avoid olfactory cues in the apparatus, visible traces of urine were removed and the general procedure was implemented as in the training phase, except that the ITI was extended to 90 s and animals were submitted to a series of […] successive trials. […] Moreover, an 8th trial was added to the series which was separated from the 7th one by a 5-s ITI. […] The alternation score (in percentage) was used as an index of memory performance. An alternation is defined as a visit in a given arm followed by a visit into the other arm. The successive sequence of visits for the seven first trials determines the level of alternation. A percentage of alternation was calculated: number of alternations performed/number maximal of alternation. This percentage is calculated for each mouse.
For the sequential alternation task, mean and standard errors of the mean (SEM) were calculated for each group of treatment. In addition to % alternation drawn over the seven trials of the series, behavioral performances were also expressed in percentage of alternation drawn from blocks of two consecutive trials (block 1: trials 2 + 3; block 2: trials 4 + 5; block 3: trials 6 + 7). The analyses per trial blocks allowed evaluation of proactive interference over the series (Vandesquille et al. [2011], [2013]). Statistical analyses were performed using the Statview 5.0 software. […]

In the case of `COc1cc2c(cc1OC)C(=O)C(CC1CCN(Cc3ccccc3)CC1)C2` (centres unmarked) [Donepezil, reference compound], the “Total number of explorations and % exploration of the baited hole, acquisition phase” value ([1]; Experiment 1 (study A and B), compounds alone, p> 0.10 in all analyses) is reported as “No significant between-groups difference”, the “Memory performance in the second discrimination (D2)” value ([1]; Experiment 1, S 47445 at all doses, donepezil at the active doses, versus middle-aged vehicle, data not shown) is reported as “did not alter memory performance” and the “Total number of head-dips, test phase” value ([1]; Experiment 1, versus vehicles (p > 0.10 in all comparisons), data not shown) is reported as “no significant effect”. The “SCM score of the second discrimination (D2), dose effect at pooled levels of the other drug” value ([1]; Supplemental data 2, S 47445 0.03–0.3 mg/kg p.o. (p=0.951), Donepezil 0.03 and 0.1 mg/kg (p=0.074)) was “no significant effect”, the “Post hoc analysis of donepezil effect on SCM score for all S 47445 levels (Dunnett, versus vehicle group)” value ([1]; donepezil 0.03 mg/kg) was “NS (p = 0.079) (NS p > 0.050)” and the “Post hoc analysis of donepezil effect on SCM score for all S 47445 levels (Dunnett, versus vehicle group)” value ([1]; donepezil 0.1 mg/kg) was “*** (***p ≤ 0.001)”. For the same compound, the “Symptoms observed in the Irwin test” value ([2]; 3 mg/kg p.o.) was “Tremor, hypothermia, and decreases in activity, abdominal muscle tone, and reactivity to touch”, the “Additional symptoms observed in the Irwin test” value ([2]; 10 mg/kg p.o.) was “Straub tail and abnormal gait (rolling)” and the “Observable effects in the Irwin test” value ([2]; dose range 3–10 mg/kg p.o., mice) was “clear and dose-dependent sedative/myorelaxant effects”. The “Performance as a function of retention interval (RI 0–4) versus chance level” value [3] was “remained significantly above chance up to RI = 3”, the “Activity in radial maze working memory task” value ([4]; donepezil 0.3 mg/kg i.p.) was “limited to the organizational component of the task” and the “Active dose in the same working memory task” value ([4]; donepezil) was 0.3 mg/kg but not of 1 mg/kg was found to be active. For the same compound, the “Alternation score, 3rd block of trials (trials 6 + 7)” value [5] was 45.833 ± 4.167 n = 12% and the “Alternation score, seven first trials of the series” value [5] was “alternated significantly above vehicles”.
